Measurements reported in PubChem BioAssay (NCI).
Where “and” joins values, the source holds several entries; their conditions need not be identical. Equal entries are not always repeated.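 Results reflect a 48-hour exposure of cells in 96-well plates to compound at five concentrations. Here, GI50 denotes the concentration required for 50% inhibition of growth. TGI is the concentration that stops growth completely.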

Legend:
Test in all cases: NCI-60 cell line screen, 48 h
NCI-H522 lung = system: NCI-H522 lung
HT29 colon = system: HT29 colon
SK-MEL-28 melanoma = system: SK-MEL-28 melanoma
ACHN renal = system: ACHN renal
SNB-19 CNS = system: SNB-19 CNS
MDA-N = system: MDA-N
M14 melanoma = system: M14 melanoma
PC-3 prostate = system: PC-3 prostate
A498 renal = system: A498 renal

SMILES | TGI (NCI-H522 lung) | TGI (HT29 colon) | TGI (SK-MEL-28 melanoma) | TGI (ACHN renal) | TGI (SNB-19 CNS) | TGI (MDA-N) | TGI (M14 melanoma) | TGI (PC-3 prostate) | TGI (A498 renal) | GI50 (HT29 colon) | GI50 (SK-MEL-28 melanoma) | GI50 (ACHN renal) | GI50 (SNB-19 CNS) | GI50 (MDA-N) | GI50 (M14 melanoma) | GI50 (PC-3 prostate) | GI50 (A498 renal) | GI50 (NCI-H522 lung)
FC(F)(F)c1nc2nc(Cl)c(Cl)nc2n1CCCN1CCOCC1 | > 100 µM | > 100 µM | > 100 µM | > 100 µM | > 100 µM | > 100 µM | > 100 µM | > 100 µM | > 100 µM | – | – | – | – | – | – | – | – | –
O=C(CC(c1ccccc1)c1c(O)c2ccccc2oc1=O)c1ccccc1 (configuration not stated) | > 100 µM | > 100 µM | > 100 µM | > 100 µM | > 100 µM | > 100 µM | > 100 µM | > 100 µM | 98.6 µM | – | – | – | – | – | – | – | – | –
Nc1ccccc1C(=O)CC1OC(=O)c2ccccc21 (configuration not stated) | > 100 µM | > 100 µM | > 100 µM | > 100 µM | > 100 µM | > 100 µM | > 100 µM | > 100 µM | > 100 µM | – | – | – | – | – | – | – | – | –
CCCC(=O)NC1=C(Cl)C(=O)c2ccccc2C1=O | 2.37 µM | 27.7 µM | 17 µM | 3.83 µM | 36.4 µM | 14.6 µM | 13 µM | 13.8 µM | 26.1 µM | – | – | – | – | – | – | – | – | –
Cc1ccc(S(=O)(=O)NC(=O)C2C(=O)CC3(CCCCC3)CC2=O)cc1 | 59.9 µM | 92.5 µM | – | 62.1 µM | > 100 µM | > 100 µM | > 100 µM | 81.3 µM | 80.6 µM | – | – | – | – | – | – | – | – | –
C=C(C)C(=O)O[C@H]1C[C@@]23O[C@@H]2CCC(=C[C@H]2OC(=O)C(=C)[C@H]12)COC3O (some centres not stated) | 30.7 µM | > 100 µM | – | > 100 µM | > 100 µM | > 100 µM | > 100 µM | > 100 µM | > 100 µM | – | – | – | – | – | – | – | – | –
[Cl][Hg][Cl] | – | 36.3 µM | 29.8 µM | 32 µM | 32 µM | 28.9 µM | 32.2 µM | 32 µM | 34.7 µM | 16100 nM | 15300 nM | 18000 nM | 17900 nM | 15.5 µM | 16200 nM | 17300 nM | 20400 nM | –
O=C(CP(=O)(O)O)NC(CC(=O)OCc1ccccc1)C(=O)OCc1ccccc1 (configuration not stated) | > 100 µM | > 100 µM | > 100 µM | > 100 µM | > 100 µM | > 100 µM | > 100 µM | > 100 µM | > 100 µM | – | – | – | – | – | – | – | – | –
CC(=O)OCC1OC(n2c(-c3ccc(Cl)cc3)ccc(C#N)c2=S)C(OC(C)=O)C(OC(C)=O)C1OC(C)=O (configuration not stated) | > 100 µM | > 100 µM | > 100 µM | > 100 µM | 58.4 µM and > 100 µM | > 100 µM | > 100 µM | > 100 µM | 56.1 µM and > 100 µM | – | – | – | 14800 nM and 42200 nM | – | – | – | 24900 nM and 73800 nM | 27800 nM and 61600 nM
COc1cc(/C=C2\C(=O)Nc3cc(C)c(O)cc32)cc(OC)c1OC | 12.1 µM | > 39.6 µM | 23 µM | 24.6 µM | 34.3 µM | – | 17.3 µM | > 100 µM | 25.4 µM | 4010 nM | 7590 nM | 8270 nM | 10600 nM | – | 4450 nM | 4320 nM | 8500 nM | 2590 nM
CNC(=O)c1ccc(N2CCN(Cc3ccc4nc(C)c(=O)[nH]c4c3F)CC2)c(F)n1 | > 100 µM | > 100 µM | > 100 µM | > 100 µM | > 100 µM | – | > 100 µM | > 100 µM | > 100 µM | > 100000 nM | > 100000 nM | > 100000 nM | 34200 nM | – | > 100000 nM | > 100000 nM | > 100000 nM | 21200 nM
CC(C)(C)C(=O)c1c(C(F)(F)F)n([O-])c2ccccc2[n+]1=O | 0.924 µM | – | 6.12 µM | 0.743 µM | 2.91 µM | – | 4.85 µM | 2.38 µM | 1.75 µM | 368 nM | 1130 nM | 272 nM | 931 nM | – | 1450 nM | 817 nM | 565 nM | 407 nM
O=c1c(Oc2ccc(F)cc2F)cc2cnc(NC3CCOCC3)nc2n1CCCO | > 25 µM | > 25 µM | > 25 µM | > 25 µM | > 25 µM | – | > 25 µM | > 25 µM | > 25 µM | > 25000 nM | > 25000 nM | > 25000 nM | > 25000 nM | – | > 25000 nM | > 25000 nM | > 18300 nM | > 25000 nM
COC(=O)c1c2c(c[n+]([O-])c1C)C(=O)C=CC2=O | 4.5 µM | 56.3 µM | 3.97 µM | 3.22 µM | 10.9 µM | – | 3.69 µM | 55.1 µM | 26.4 µM | 4100 nM | 2140 nM | 1730 nM | 3020 nM | – | 1870 nM | 4340 nM | 13100 nM | 1720 nM
Fc1ccc2[nH]cc(-c3nonc3-c3c[nH]c4ccc(Br)cc34)c2c1 | 4.47 µM | 4.03 µM | 8.15 µM | 8.42 µM | 5.69 µM | – | 4.98 µM | 7.68 µM | 6.38 µM | 2010 nM | 2860 nM | 2000 nM | 2250 nM | – | 1870 nM | 2050 nM | 2700 nM | 1850 nM
FC(F)c1nc2ccccc2n1-c1nc(N2CCOCC2)nc(N2CCOCC2)n1 | 2.69 µM | > 100 µM | 1.87 µM and 3.79 µM | > 100 µM | > 100 µM | – | – | – | 0.169 µM and 0.138 µM | 238 nM and 370 nM | 174 nM and 244 nM | 299 nM and 397 nM | 1280 nM and 1740 nM | – | 566 nM and 464 nM | 72.2 nM and 113 nM | 30.3 nM and 21.6 nM | 222 nM and 295 nM
Cc1nc(SCC(=O)Nc2nc(-c3ccc(Cl)cc3)cs2)n(Nc2ccccc2)c1C | 13.7 µM | 15.4 µM | 24.6 µM | 14.1 µM | 24.6 µM | – | 16 µM | 11 µM | 10.5 µM | 3780 nM | 10100 nM | 3670 nM | 9410 nM | – | 3690 nM | 2340 nM | 2240 nM | 2540 nM
C#CCOc1cccc(-c2ncnc3cc(NC(=O)CCl)ccc23)c1 | 1.71 µM | 1.49 µM | 4.5 µM | 2.06 µM | 4.86 µM | – | 2.64 µM | 4.84 µM | 15.9 µM | 50.2 nM | 1560 nM | 419 nM | 1140 nM | – | 660 nM | 813 nM | 3830 nM | 149 nM
Cn1cc(C2=C(c3cn(CCCCN)c4ccccc34)C(=O)NC2=O)c2ccccc21 | > 25 µM | > 25 µM | > 25 µM | > 25 µM | > 25 µM | – | > 25 µM | > 25 µM | > 25 µM | > 25000 nM | > 25000 nM | > 25000 nM | > 25000 nM | – | > 25000 nM | > 25000 nM | > 25000 nM | > 25000 nM
Cc1ccc(C)c2c1C(O)(C#Cc1ccccc1)c1ccccc1C2(O)C#Cc1ccccc1 (configuration not stated) | > 100 µM | > 100 µM | > 88.5 µM | > 100 µM | > 100 µM | – | > 82.5 µM | > 23.7 µM | 14.9 µM | 2960 nM | 3750 nM | 2840 nM | 3740 nM | – | 3600 nM | 2420 nM | 2200 nM | 4550 nM
Cc1cnc(NC(=O)Nc2cc(Br)c(C)cc2OC[C@@H]2CNCCO2)cn1 | > 10 µM and 11.5 µM | > 10 µM and 10.1 µM | 6.65 µM and 6.88 µM | – | > 10 µM and 14.3 µM | – | 1.37 µM and 0.999 µM | > 10 µM and 16.4 µM | – | 1950 nM and 2590 nM | 2210 nM and 2440 nM | 319 nM and 225 nM | 2520 nM and 1420 nM | – | 338 nM and 311 nM | 5770 nM and 3730 nM | 330 nM and 89.4 nM | 2100 nM and 2460 nM
CC(C)CCC(=O)c1ccoc1 | – | > 100 µM | > 100 µM | > 100 µM | > 100 µM | > 100 µM | > 100 µM | > 100 µM | – | – | – | – | – | – | – | – | – | –
COc1cc(NC(N)=NCCC(C)(C)Oc2ccc(C(F)(F)F)cc2)ncc1C#N | 2.9 µM | 3.03 µM | 3.23 µM | 3.06 µM | 3.3 µM | – | 3.11 µM | 2.82 µM | 3.23 µM | 1640 nM | 1830 nM | 1700 nM | 1840 nM | – | 1620 nM | 1420 nM | 1800 nM | 1470 nM
Cc1ccc(-c2csc(/N=C3\C(=O)Nc4ccccc43)n2)cc1 | 3.49 µM | 4.83 µM | 3.03 µM | 14.2 µM | 3.19 µM | – | 2.79 µM | 2.82 µM | 3.53 µM | 1600 nM | 1470 nM | 2620 nM | 1520 nM | – | 1320 nM | 1080 nM | 1710 nM | 1510 nM
O=S(=O)(Nc1ccccc1Cl)c1ccc(-c2cnc(C3CC3)o2)cc1 | 15.6 µM | > 41.2 µM | > 100 µM | > 100 µM | > 100 µM | – | > 100 µM | > 100 µM | 0.608 µM | 331 nM | 3340 nM | 744 nM | 642 nM | – | 279 nM | 521 nM | 87.3 nM | 260 nM
Cc1cc(S(=O)(=O)Nc2nc3cscc3c(=O)n2Cc2ccccc2)c(S)cc1Cl | > 100 µM | > 100 µM | > 100 µM | > 100 µM | > 100 µM | – | > 100 µM | > 100 µM | > 100 µM | 47900 nM | 74300 nM | 52600 nM | 29100 nM | – | 61300 nM | 35600 nM | 46600 nM | 81600 nM
